This note sets out measurements from patent publication US20100105705A1, “PURINYL DERIVATIVES AND THEIR USE AS POTASSIUM CHANNEL MODULATORS” (NeuroSearch A/S, priority 2007, published 2010).

One data set deals with T1, hSK3 channels (Homo sapiens, UniProt Q9UGI6).
T1 construct: expressed in transfected cells; host or cells: HEK293
The data set can be described thus: Whole-cell patch-clamp recording of ionic current through SK channels, subtype 3, in HEK293 cells expressing hSK3. It counts as cell-based. The procedure:
The ionic current through small-conductance Ca^2+-activated K^+ channels (SK channels, subtype 3) is recorded using the whole-cell configuration of the patch-clamp technique in a classic patch-clamp set-up using HEK293 tissue culture cells expressing hSK3 channels as described in e.g. WO 2006/100212.
The SC100 value determined is defined as the Stimulating Concentration required for increasing the baseline current by 100%. The below SC100 values are an indication of the SK3 activating properties of the compounds of the invention.

For the compound `Cc1c2c(nn1-c1nc(Nc3ccc(F)cc3)c3ncn(C)c3n1)CCC2` [Compound 9.5, (4-Fluoro-phenyl)-[9-methyl-2-(3-methyl-5,6-dihydro-4H-cyclopentapyrazol-2-yl)-9H-purin-6-yl]-amine], the “SC100 (Stimulating Concentration required for increasing the baseline current by 100%)” value at hSK3 channels worked out at 0.15 µM.
`Cn1cnc2c(Nc3ccc(Cl)cc3)nc(-n3cccn3)nc21` [Compound 6.2, (4-Chloro-phenyl)-(9-methyl-2-pyrazol-1-yl-9H-purin-6-yl)-amine]: at hSK3 channels, the “SC100 (Stimulating Concentration required for increasing the baseline current by 100%)” value amounted to 0.18 µM.
On the same count and under the same terms, under `Cc1ccn(-c2nc(Nc3ccc(F)cc3)c3ncn(C)c3n2)n1` [Compound 6.6, (4-Fluoro-phenyl)-[9-methyl-2-(3-methyl-pyrazol-1-yl)-9H-purin-6-yl]-amine] stands 0.02 µM.
Still for that read-out and setting: with `Cc1ccn(-c2nc(Nc3ccc(Cl)cc3)c3ncn(C)c3n2)n1` [Compound 9.1, (4-Chloro-phenyl)-[9-methyl-2-(3-methyl-pyrazol-1-yl)-9H-purin-6-yl]-amine] the figure was 0.02 µM.
Same read-out and setting: with `Cn1cnc2c(Nc3ccc(Cl)cc3)nc(-n3ccc(N)n3)nc21` [Compound 7.1, [2-(3-Amino-pyrazol-1-yl)-9-methyl-9H-purin-6-yl]-(4-chloro-phenyl)-amine] the figure was 0.6 µM.
Regarding `Cn1cnc2c(Nc3ccc(Cl)cc3)nc(-n3ccc(C(F)(F)F)n3)nc21` [Compound 6.1, (4-Chloro-phenyl)-[9-methyl-2-(3-trifluoromethyl-pyrazol-1-yl)-9H-purin-6-yl]-amine], at hSK3 channels, the “SC100 (Stimulating Concentration required for increasing the baseline current by 100%)” value was 0.3 µM.
The compound `Cn1cnc2c(Nc3ccc(Cl)cc3)nc(-c3ccccn3)nc21` [Compound 13.1, (4-Chloro-phenyl)-(9-methyl-2-pyridin-2-yl-9H-purin-6-yl)-amine] showed a melting point of 185.4 to 190.5 °C.
Turning to `Cc1ccn(-c2nc(NCCc3ccccc3)c3ncn(C)c3n2)n1` [Compound 9.3, [9-Methyl-2-(3-methyl-pyrazol-1-yl)-9H-purin-6-yl]-phenethyl-amine], on hSK3 channels, the “SC100 (Stimulating Concentration required for increasing the baseline current by 100%)” value is 0.6 µM.
Same read-out and setting: with `Cn1cnc2c(NC3CCCCC3)nc(-n3cccn3)nc21` [Compound 6.3, Cyclohexyl-(9-methyl-2-pyrazol-1-yl-9H-purin-6-yl)-amine] the figure was 0.7 µM.

What is called melting point is the temperature, or range, at which the solid turns liquid.
